# Reference: US20040033213A1, “Methods of modulating dendritic cells using adjuvants” (Corixa Corporation, priority 2002, published 2004)
# Experiments:
# Assay type in all cases: cell-based
# [1] = test system: cultured human DCs + autologous T cells
# [2] = test system: murine bone marrow derived DCs + D011.10 T cells; test: APC function of ova-pulsed, lipid A potentiated murine DCs co-cultured with D011.10 T cells (cytokine ELISA)
# Source text: These antigen pulsed, lipid A potentiated cells were then washed thoroughly and titered against ova-specific T cell effector cells in vitro at an APC: T cell ratio titration of 1:1 out to as high as 1:512. The effector T cells in this in vitro assay were the antigen naive, but antigen (ova) specific, MHC restricted I-A^d splenic T cells from transgenic D011.10 mice.
# D011.10 TCR-transgenic mice were used in these experiments as donors of antigen specific naive T cells. In their germline DNA these mice contain rearranged TCR-Vα and -Vβ genes that encode a T cell receptor (TCR) specific for the ovalbumin peptide 323-339 bound to IA^d (Balb/c) Class II MHC molecules. The transgenic ova peptide specific TCR can be detected with the KJ1-26 monoclonal antibody (mAb) that binds only to this particular TCR heterodimer. These cells provide a ready source of “normal” antigen (ova)-specific effector T cells. Effective antigen-mediated APC stimulation of those T cells is generally measured by ELISA quantitation of IL-2 or IFN-γ in the culture supernatants of DC+D011.10 T cells after 24-48 hours of incubation.
# In one experiment, murine bone marrow derived DCs (6 day cultures) were pulsed with ova (50 μg/ml-5×10^5 cells/ml) and then potentiated overnight with LPS(R595), MPL® immunostimulant-S, RC-527, RC-529 or RC-544 prior to being cultured together with naive D011.10 effector T cells (FIGS. 1-7). The APC function of these DCs as measured by their ability to stimulate IL-2, IFN-γ IL-12 (p70) and IL-12 (p40) secretion in the DC+D011.10 co-culture systems was analyzed. All of the data shown in FIGS. 1-7 was developed from DCs maintained in lipid A induction cultures for either 15 or 38 hours prior to use in the T cell assay.
# [3] = test system: Human d7 Cultured Dendritic Cells; test: Flow cytometry phenotype analysis of human d7 cultured dendritic cells after 24 h stimulation; conditions: for HLA-DR MFI: 7 day DCs, 24 h stimulation
# [4] = test system: 6-7 day cultured human dendritic cells; test: ELISA of cytokines (IL-12 p40, IL-12 p70, TNF-α) in 22 h induction supernatants of cultured human dendritic cells; conditions: for IL-12 p40 / IL-12 p70 / TNF-α: 22 Hrs
# Source text: Recent articles have described how human dendritic cells can be derived in vitro from CD14 positive monocyte precursors in peripheral blood. A “buffy coat” preparation can now be commonly obtained from a unit of normal human peripheral blood from a blood bank on request. The leukocyte fraction was harvested from this buffy coat preparation using standard ficoll centrifugation techniques. Subsequently, the leukocyte fraction was labeled with anti-CD 14 antibody coupled to magnetic microbeads. This preparation was then passed over a magnet (Miltanyi Biotech) and CD14 positive monocytes were collected. These CD14 positive monocyte precursors were then cultured for 5-7 days in vitro (5×10^5 cells/ml) with GM-CSF (20 ng/ml) for the duration of the culture. […] After the 24 hour in vitro stimulation culture, cells were washed twice and stained with a panel of monoclonal antibodies specific for different cell surface activation and co-receptor molecules found on mature, activated DCs.
# Supernatants from DCs stimulated with LPS, MPL® immunostimulant-S, RC-527, RC-529, and RC-544 were collected and tested by ELISA analysis for cytokines.
# [5] = Exp. 091698, 24 h, LPS 10 ng/ml, others 100 ng/ml
# [6] = Exp. 092398, 24 h, LPS 10 ng/ml, others 100 ng/ml
# [7] = Exp. 093098, 24 h, LPS 10 ng/ml, others 100 ng/ml
# [8] = Exp. # 092398, Day 7, LPS 10 ng/ml, others 100 ng/ml
# [9] = Exp. # 093098, LPS 10 ng/ml, others 100 ng/ml
smiles,measurement,setting,value
CCCCCCCCCCCC(=O)OC(CCCCCCCCCCC)CC(=O)NC(CO)COC1OC(CO)C(OP(=O)(O)O)C(OC(=O)CC(CCCCCCCCCCC)OC(=O)CCCCCCCCCCC)C1NC(=O)CC(CCCCCCCCCCC)OC(=O)CCCCCCCCCCC (centres unmarked) [RC-544],"T cell proliferation / DC activation, CPM 3H-thymidine response (in words)",[1],highest levels of DC activation compared to MPL® immunostimulant
same,IL-2 secretion (in words),"[2]; DCs prestimulated 15 hours, all T cell:APC ratios, FIG. 1",comparable in their ability to stimulate IL-2 secretion
same,IL-12 (p70) in DC+D011.10 co-cultures (in words),[2]; FIG. 5,overall weaker in their effect than LPS and RC-527
same,IL-12 (p70) at T cell:APC ratio 16:1 (in words),[2]; FIG. 6,substantially higher stimulation effect than that induced by RC-529
same,release of IL-12 (p40) homodimer in DC+D011.10 co-cultures (in words),[2]; FIG. 7,weaker in their effect than LPS and RC-527
same,CD 1a % positive cells,[3]; [5],11.6%
same,CD 1a MFI,[3]; [5],7.38
same,CD 4 % positive cells,[3]; [5],70.6%
same,CD 4 MFI,[3]; [5],2.17
same,CD 14 % positive cells,[3]; [5],7.6%
same,CD 35 % positive cells,[3]; [5],52.5%
same,CD 35 MFI,[3]; [5],2.85
same,CD 40 MFI,[3]; [5],31.8
same,CD 44 MFI,[3]; [5],242
same,CD 54 MFI,[3]; [5],26.1
same,CD 62 L % positive cells,[3]; [5],11.6%
same,CD 69 % positive cells,[3]; [5],10.8%
same,CD 80 % positive cells,[3]; [5],99.2%
same,CD 80 MFI,[3]; [5],5.99
same,CD 83 % positive cells,[3]; [5],94.3%
same,CD 83 MFI,[3]; [5],2.72
same,CD 86 % positive cells,[3]; [5],99.7%
same,CD 86 MFI,[3]; [5],15.3
same,CD 95 % positive cells,[3]; [5],86.0%
same,CD 95 MFI,[3]; [5],1.31
same,HLA-DR MFI,"[3]; Exp. 091698, LPS 10 ng/ml, others 100 ng/ml",544-S 60.8
same,CD 1a % positive cells,[3]; [6],75.6%
same,CD 1a MFI,[3]; [6],4.44
same,CD 4 % positive cells,[3]; [6],75.7%
same,CD 4 MFI,[3]; [6],2.80
same,CD 14 % positive cells,[3]; [6],5.0%
same,CD 35 % positive cells,[3]; [6],59.1%
same,CD 35 MFI,[3]; [6],2.98
same,CD 40 MFI,[3]; [6],33.7
same,CD 54 MFI,[3]; [6],32.7
same,CD 62 L % positive cells,[3]; [6],7.1%
same,CD 69 % positive cells,[3]; [6],10.1%
same,CD 80 % positive cells,[3]; [6],99.1%
same,CD 80 MFI,[3]; [6],7.56
same,CD 83 % positive cells,[3]; [6],97.1%
same,CD 83 MFI,[3]; [6],3.52
same,CD 86 % positive cells,[3]; [6],99.9%
same,CD 86 MFI,[3]; [6],26.4
same,CD 95 % positive cells,[3]; [6],90.6%
same,CD 95 MFI,[3]; [6],1.40
same,αC5aR + GAR Alexa % positive cells,[3]; [6],45.9%
same,CD 44 MFI,"[3]; Exp. 092398, 24 h, LPS 10 ng/ml, others 100 ng/ml, values printed with a trailing +",426+
same,GAR-Alexa % positive cells,"[3]; Exp. 092398, 24 h, secondary reagent staining, LPS 10 ng/ml, others 100 ng/ml",3.9%
same,HLA-DR MFI,"[3]; Exp. 092398, LPS 10 ng/ml, others 100 ng/ml",155.2
same,CCR 6 % positive cells,[3]; [7],5.8%
same,CD 1a % positive cells,[3]; [7],78.1%
same,CD 1a MFI,[3]; [7],6.06
same,CD 3 % positive cells,[3]; [7],26.8%
same,CD 3 MFI,[3]; [7],3.86
same,CD 4 % positive cells,[3]; [7],79.4%
same,CD 4 MFI,[3]; [7],3.11
same,CD 11c % positive cells,[3]; [7],91.0%
same,CD 11c MFI,[3]; [7],6.23
same,CD 14 % positive cells,[3]; [7],4.1%
same,CD 40 MFI,[3]; [7],30.4
same,CD 54 MFI,[3]; [7],36.8
same,CD 62 L % positive cells,[3]; [7],4.0%
same,CD 80 % positive cells,[3]; [7],99.0%
same,CD 80 MFI,[3]; [7],10.9
same,CD 83 % positive cells,[3]; [7],92.5%
same,CD 83 MFI,[3]; [7],3.43
same,CD 86 % positive cells,[3]; [7],99.8%
same,CD 86 MFI,[3]; [7],26.3
same,CD 123 % positive cells,[3]; [7],48.0%
same,CD 123 MFI,[3]; [7],1.85
same,αC5aR + Alexa 488 % positive cells,[3]; [7],43.3%
same,αC5aR + Alexa 488 MFI,[3]; [7],9.41
same,HLA-DR MFI,"[3]; Exp. 093098, LPS 10 ng/ml, others 100 ng/ml",134.3
same,stimulating the expression of HLA-DR and co-stimulatory molecules (in words),"[3]; RC-529 compared with RC-544, three experiments",very comparable effects
same,CD40 and CD83 expression (in words),[3]; RC-544 compared with RC-529,slightly higher levels of CD40 and CD83 expression than did RC-529
same,IL-12 p40,"[4]; Exp. # 091698, LPS 10 ng/ml, others 100 ng/ml","42,500 pg/mL/5 × 10^5 Cells"
same,IL-12 p70,"[4]; Exp. # 092398 (second line, Day7), LPS 10 ng/ml, others 100 ng/ml",175.2 pg/ml/5 × 10^5 Cells
same,IL-12 p40,[4]; [8],"80,500 pg/mL/5 × 10^5 Cells"
same,TNF-α,[4]; [8],5.650 pg/mL/5 × 10^5 Cells
same,IL-12 p70,"[4]; Exp. # 092398 as printed (first line of section), LPS 10 ng/ml, others 100 ng/ml",8.8 pg/ml/5 × 10^5 Cells
same,IL-12 p70,"[4]; Exp. # 092398 as printed (third line of section), LPS 10 ng/ml, others 100 ng/ml",55.7 pg/ml/5 × 10^5 Cells
same,IL-12 p40,[4]; [9],"62,000 pg/mL/5 × 10^5 Cells"
same,TNF-α,[4]; [9],880 pg/mL/5 × 10^5 Cells
same,IL-12 (p40) expression (in words),"[4]; all three experiments, LPS 10 ng/ml, others 100 ng/ml",also stimulated IL-12 (p40) responses
same,IL-12 (p70) (in words),[4]; the one donor in which LPS and MPL-S gave a significant amount,high levels of IL-12 (p70)
same,TNF-α secretion (in words),[4]; three donors,moderately lower than the effect due to RC-527
